Data: patent US6355799B1, “Substituted benzene compounds, process for their preparation, and herbicidal and defoliant compositions containing them” (ISK Americas Incorporated, priority 1997, dated 2002)

What was measured:
[1] = tested on: redroot pigweed (Amaranthus retroflexus, AMARE); assay: Pre-emerge test, greenhouse herbicide activity screening; type: in vivo; settings: pre-emerge, phytotoxicity rating 0-100 at 14 days after application
In short: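 Compounds in acetone were track-sprayed at 15-1000 g ai/ha (187 l/ha) on sandy loam pots: pre-emerge one day after seeding, post-emerge at 2-3 leaf stage with 0.25% v/v non-ionic surfactant. Phytotoxicity was rated 14 days later on a 0 (no damage) to 100 (complete death) scale.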

[2] = tested on: barnyardgrass (Echinochloa crus-galli, ECHCG); assay: as above; type: in vivo; settings: pre-emerge, phytotoxicity rating 0-100 at 14 days after application
In short: (§1)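 Compounds in acetone were track-sprayed at 187 l/ha, 15–1000 g ai/ha, onto sandy loam pots. Pre-emerge seeds were sown one day before spraying, with surface watering afterwards. Post-emerge plants were at the 2–3 leaf stage and sprayed with 0.25% v/v non-ionic surfactant. Injury was rated 0–100 at 14 days.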

[3] = tested on: green foxtail (Setaria viridis, SETVI); assay: as above; type: in vivo; settings: pre-emerge, phytotoxicity rating 0-100 at 14 days after application
In short: as §1

[4] = tested on: ivyleaf morningglory (Ipomoea hederacea, IPOHE); assay: as above; type: in vivo; settings: pre-emerge, phytotoxicity rating 0-100 at 14 days after application
In short: as §1

[5] = tested on: johnsongrass (Sorghum halepense, SORHA); assay: as above; type: in vivo; settings: pre-emerge, phytotoxicity rating 0-100 at 14 days after application
In short: as §1

[6] = tested on: lambsquarters (Chenopodium album, CHEAL); assay: as above; type: in vivo; settings: pre-emerge, phytotoxicity rating 0-100 at 14 days after application
In short: as §1

[7] = tested on: large crabgrass (Digitaria sanguinalis, DIGSA); assay: as above; type: in vivo; settings: pre-emerge, phytotoxicity rating 0-100 at 14 days after application
In short: as §1

[8] = tested on: sicklepod (Cassia obtusifolia, CASOB); assay: as above; type: in vivo; settings: pre-emerge, phytotoxicity rating 0-100 at 14 days after application
In short: as §1

[9] = tested on: velvetleaf (Abutilon theophrasti, ABUTH); assay: as above; type: in vivo; settings: pre-emerge, phytotoxicity rating 0-100 at 14 days after application
In short: as §1

[10] = tested on: field corn (Zea mays L., var. Dekalb 535, CORN); assay: Pre-emerge test, crop safety; type: in vivo; settings: crop damage, pre-emerge, phytotoxicity rating 0-100 at 14 days after application
In short: (§2)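 Plants grown in 10 cm pots of sandy loam mix received acetone-dissolved compounds through a moving flat-fan nozzle. Doses ranged from 15 to 1000 g ai/ha. Pre-emerge pots were seeded one day earlier, post-emerge pots 8–21 days earlier. Fourteen days on, each pot was graded 0–100 for damage.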

[11] = tested on: soybean (Glycine max L., var. Pella 86, SOY); assay: Pre-emerge test, crop safety; type: in vivo; settings: crop damage, pre-emerge, phytotoxicity rating 0-100 at 14 days after application
In short: as §2

[12] = tested on: upland rice (Oryza sp., var. Tebonnet, RICE); assay: Pre-emerge test, crop safety; type: in vivo; settings: crop damage, pre-emerge, phytotoxicity rating 0-100 at 14 days after application
In short: as §2

[13] = tested on: barnyardgrass (Echinochloa crus-galli, ECHCG); assay: Post-emerge test, greenhouse herbicide activity screening; type: in vivo; settings: post-emerge, phytotoxicity rating 0-100 at 14 days after application
In short: (§3)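 Applied at 15–1000 g ai/ha from acetone in 187 l/ha spray volume. Post-emergence applications included 0.25% v/v non-ionic surfactant and reached plants sown 8–21 days before. Pre-emergence applications were incorporated by surface watering. Efficacy or crop damage was rated on a 0–100 scale after 14 days.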

[14] = tested on: green foxtail (Setaria viridis, SETVI); assay: as above; type: in vivo; settings: post-emerge, phytotoxicity rating 0-100 at 14 days after application
In short: as §3

[15] = tested on: ivyleaf morningglory (Ipomoea hederacea, IPOHE); assay: as above; type: in vivo; settings: post-emerge, phytotoxicity rating 0-100 at 14 days after application
In short: as §3

[16] = tested on: johnsongrass (Sorghum halepense, SORHA); assay: as above; type: in vivo; settings: post-emerge, phytotoxicity rating 0-100 at 14 days after application
In short: as §3

[17] = tested on: lambsquarters (Chenopodium album, CHEAL); assay: as above; type: in vivo; settings: post-emerge, phytotoxicity rating 0-100 at 14 days after application
In short: as §3

[18] = tested on: large crabgrass (Digitaria sanguinalis, DIGSA); assay: as above; type: in vivo; settings: post-emerge, phytotoxicity rating 0-100 at 14 days after application
In short: as §3

[19] = tested on: redroot pigweed (Amaranthus retroflexus, AMARE); assay: as above; type: in vivo; settings: post-emerge, phytotoxicity rating 0-100 at 14 days after application
In short: as §3

[20] = tested on: sicklepod (Cassia obtusifolia, CASOB); assay: as above; type: in vivo; settings: post-emerge, phytotoxicity rating 0-100 at 14 days after application
In short: as §3

[21] = tested on: velvetleaf (Abutilon theophrasti, ABUTH); assay: as above; type: in vivo; settings: post-emerge, phytotoxicity rating 0-100 at 14 days after application
In short: as §3

[22] = tested on: field corn (Zea mays L., var. Dekalb 535, CORN); assay: Post-emerge test, crop safety; type: in vivo; settings: post-emerge, crop damage rating 0-100 at 14 days after application
In short: as §1

[23] = tested on: soybean (Glycine max L., var. Pella 86, SOY); assay: Post-emerge test, crop safety; type: in vivo; settings: crop damage rating 0-100 at 14 days after application
In short: as §1

[24] = tested on: upland rice (Oryza sp., var. Tebonnet, RICE); assay: Post-emerge test, crop safety; type: in vivo; settings: post-emerge, crop damage rating 0-100 at 14 days after application
In short: as §1

C#CCOc1c(Cl)cc(F)c(-n2nnn(CCCF)c2=O)c1N [Compound 5-17, 1-(2-amino-4-chloro-6-fluoro-3-propargyloxyphenyl)-4-(3-fluoroproyl)-1,4-dihydro-5-oxo-5H-tetrazole]
Pre-emerge Herbicidal Activity AMARE ([1]; rate 63 g ai/ha): 30 | Pre-emerge Herbicidal Activity AMARE ([1]; rate 250 g ai/ha): 100 | Pre-emerge Herbicidal Activity ECHCG ([2]; rate 63 g ai/ha): 0 | Pre-emerge Herbicidal Activity ECHCG ([2]; rate 250 g ai/ha): 40 | Pre-emerge Herbicidal Activity SETVI ([3]; rate 63 g ai/ha): 95 | Pre-emerge Herbicidal Activity SETVI ([3]; rate 250 g ai/ha): 100 | Pre-emerge Herbicidal Activity IPOHE ([4]; rate 63 g ai/ha): 0 | Pre-emerge Herbicidal Activity IPOHE ([4]; rate 250 g ai/ha): 0 | Pre-emerge Herbicidal Activity SORHA ([5]; rate 63 g ai/ha): 40 | Pre-emerge Herbicidal Activity SORHA ([5]; rate 250 g ai/ha): 70 | Pre-emerge Herbicidal Activity CHEAL ([6]; rate 63 g ai/ha): 70 | Pre-emerge Herbicidal Activity CHEAL ([6]; rate 250 g ai/ha): 100 | Pre-emerge Herbicidal Activity DIGSA ([7]; rate 63 g ai/ha): 30 | Pre-emerge Herbicidal Activity DIGSA ([7]; rate 250 g ai/ha): 50 | Pre-emerge Herbicidal Activity CASOB ([8]; rate 63 g ai/ha): 0 | Pre-emerge Herbicidal Activity CASOB ([8]; rate 250 g ai/ha): 30 | Pre-emerge Herbicidal Activity ABUTH ([9]; rate 63 g ai/ha): 40 | Pre-emerge Herbicidal Activity ABUTH ([9]; rate 250 g ai/ha): 100 | Pre-emerge Herbicidal Activity CORN ([10]; rate 63 g ai/ha): 0 | Pre-emerge Herbicidal Activity CORN ([10]; rate 250 g ai/ha): 0 | Pre-emerge Herbicidal Activity SOY ([11]; rate 63 g ai/ha): 0 | Pre-emerge Herbicidal Activity SOY ([11]; rate 250 g ai/ha): 0 | Pre-emerge Herbicidal Activity RICE ([12]; rate 63 g ai/ha): 20 | Pre-emerge Herbicidal Activity RICE ([12]; rate 250 g ai/ha): 20 | Post-emerge Herbicidal Activity ECHCG ([13]; 63 g ai/ha): 0 | Post-emerge Herbicidal Activity ECHCG ([13]; 250 g ai/ha): 20 | Post-emerge Herbicidal Activity SETVI ([14]; 63 g ai/ha): 0 | Post-emerge Herbicidal Activity SETVI ([14]; 250 g ai/ha): 80 | Post-emerge Herbicidal Activity IPOHE ([15]; 63 g ai/ha): 30 | Post-emerge Herbicidal Activity IPOHE ([15]; 250 g ai/ha): 40 | Post-emerge Herbicidal Activity SORHA ([16]; 63 g ai/ha): 0 | Post-emerge Herbicidal Activity SORHA ([16]; 250 g ai/ha): 10 | Post-emerge Herbicidal Activity CHEAL ([17]; 63 g ai/ha): 20 | Post-emerge Herbicidal Activity CHEAL ([17]; 250 g ai/ha): 60 | Post-emerge Herbicidal Activity DIGSA ([18]; 63 g ai/ha): 0 | Post-emerge Herbicidal Activity DIGSA ([18]; 250 g ai/ha): 0 | Post-emerge Herbicidal Activity AMARE ([19]; 63 g ai/ha): 0 | Post-emerge Herbicidal Activity AMARE ([19]; 250 g ai/ha): 30 | Post-emerge Herbicidal Activity CASOB ([20]; 63 g ai/ha): 0 | Post-emerge Herbicidal Activity CASOB ([20]; 250 g ai/ha): 30 | Post-emerge Herbicidal Activity ABUTH ([21]; 63 g ai/ha): 90 | Post-emerge Herbicidal Activity ABUTH ([21]; 250 g ai/ha): 100 | Post-emerge Herbicidal Activity CORN ([22]; 63 g ai/ha): 0 | Post-emerge Herbicidal Activity CORN ([22]; 250 g ai/ha): 10 | Post-emerge Herbicidal Activity SOY ([23]; 63 g ai/ha): 15 | Post-emerge Herbicidal Activity SOY ([23]; 250 g ai/ha): 70 | Post-emerge Herbicidal Activity RICE ([24]; 63 g ai/ha): 10 | Post-emerge Herbicidal Activity RICE ([24]; 250 g ai/ha): 50

COc1c(Cl)cc(F)c(-n2ncc(C(F)(F)F)cc2=O)c1N [Compound 11-4, 2-(2-amino-4-chloro-6-fluoro-3-methoxyphenyl)-5-trifluoromethylpyridazin-3-one]
melting point: 156 to 157 °C
